In US20220267854A1, “EGFR AND ROS1 KINASE IN CANCER” (CELL SIGNALING TECHNOLOGY, INC., priority 2012, published 2022):

Columns and labels:
FIG-ROS1(L) = FIG-ROS1(L) (Homo sapiens, UniProt P08922); test: Western blotting, phosphorylation of FIG-ROS1(L) in BaF3 cells; format: cell-based
From the text: (§1) All antibodies were from Cell Signaling Technology, Inc. (Danvers, Mass.)
(§2) Since ROS1, ALK, LTK, InsR, and IGFIR belong to the same family of tyrosine kinases, they may share similar structure in the kinase domain.

[1] = test system: STAT3, AKT, ERK, Shp2 in FIG-ROS1(S) expressing BaF3 cells; test: Western blotting, downstream signaling molecules in FIG-ROS1(S) expressing BaF3 cells; format: cell-based
From the text: as §1, §2

[2] = test system: STAT3, AKT, ERK, Shp2 in FIG-ROS1(L) expressing BaF3 cells; test: Western blotting, downstream signaling molecules in FIG-ROS1(L) expressing BaF3 cells; format: cell-based
From the text: as §1, §2

[3] = test system: BaF3 cells expressing FIG-ROS1(L); test: Cleaved caspase-3 flow cytometry (apoptosis), BaF3 FIG-ROS1(L); format: cell-based; details: FIG. 7
From the text: (§3) The mechanism of death of the BaF3 and Karpas 299 cells was next assessed by measuring the percentage of cleaved-caspase 3 positive cells by flow cytometry assay using cleaved caspase-3 as a marker for apoptosis.

[4] = test system: STAT3, AKT, ERK, Shp2 in BaF3 cells transduced with the FLT-3ITD retrovirus; format: cell-based; details: FLT-3ITD BaF3
From the text: as §1, §2

[5] = test system: BaF3 cells expressing myc-tagged neomycin (Neo-Myc); test: MTS cell growth assay, BaF3 expressing myc-tagged neomycin; format: cell-based; details: FIGS. 9A/9B; 0-1.0 uM; negative control BaF3 neo-myc
Experimental: (§4) BaF3 and Karpas 299 cells were obtained from DSMZ (Deutsche Sammlung von Mikroorganismen und Zellkulturen GmbH, Germany). BaF3 cells, which need interleukin-3 to survive, were maintained at 37° C. in RPMI-1640 medium (Invitrogen) with 10% fetal bovine serum (FBS) (Sigma) and 1.0 ng/ml murine IL-3 (R&D Systems). Karpas 299 cells (a lymphoma cell line) were grown in RPMI-1640 with 10% FBS.
(§5) A MTS assay was performed using the CellTiter 96 Aqueous One Solution Reagent (Promega, Catalog No G3582). […] After 72 hours, 20 μl of the CellTiter 96 Aqueous One Solution Reagent was added into each well of a 96 well assay plate (flat bottom), and then 100 μl of cells grown with or without treatment. Media-only wells were used as controls. The 96 well plate was incubated for 1-4 hours at 37° C., and then viable cells were counted by reading the absorbance at 490 nm using a 96 well plate reader.

[6] = test system: BaF3 cells expressing FIG-ROS1(S); test: Cleaved caspase-3 flow cytometry (apoptosis), BaF3 FIG-ROS1(S); format: cell-based; details: FIG. 7
From the text: as §3

Karpas 299 cells = test: Cleaved caspase-3 flow cytometry (apoptosis), Karpas 299; format: cell-based; details: FIG. 7
From the text: as §3

[7] = test system: BaF3 cells transduced with FLT3/ITD
Experimental: as §4
(§6) BaF3 cells were transduced with retrovirus encoding FIG-ROS1(S), FIG-ROS1(L), or FLT-31TD (the Internal tandem duplication mutation in FLT3 causes AML leukemia), and selected for IL3 independent growth. Karpas 299 cells, which express NPM-ALK, was used as a positive control. Retroviruses were generated as previously described (see PCT Publication No. WO 2010/093928, incorporated by reference).
as §5

[8] = test system: Karpas 299 cells (express NPM-ALK); details: FIG. 6, 0-1000 nM, 72 hours
Experimental: as §4, §6, §5

FIG-ROS1(S) = biological target: T1, FIG-ROS1(S) (Homo sapiens, UniProt P08922); test: Western blotting, phosphorylation of FIG-ROS1(S) in BaF3 cells; format: cell-based
T1 construct: expressed in transfected cells; host or cells: BaF3 cells (retroviral transduction, selected for IL3-independent growth)
From the text: as §1, §2

[9] = test system: BaF3 cells expressing FIG-ROS1(S); test: MTS cell growth assay, BaF3 expressing FIG-ROS1(S); format: cell-based
Experimental: as §4, §6, §5

[10] = test system: BaF3 cells expressing FIG-ROS1(L); test: MTS cell growth assay, BaF3 expressing FIG-ROS1(L); format: cell-based
Experimental: as §4, §6, §5

[11] = FIG. 8, 0, 10, 50, or 100 nM for three hours
[12] = FIGS. 9A/9B, 0-1.0 uM, same concentration of each
[13] = FIG. 10, 0, 0.1, 0.3, or 1.0 uM for three hours

`COc1cc(N2CCC(N3CCN(C)CC3)CC2)ccc1Nc1ncc(Cl)c(Nc2ccccc2S(=O)(=O)C(C)C)n1` [TAE-684] was tested. Which “phosphorylation of FIG-ROS1(L)” value (FIG-ROS1(L); [11]) did it give?
Its value is “inhibited”.

What about the “phosphorylation of STAT3, AKT, and ERK, and Shp2” value (“phosphorylation of STAT3, AKT” for short) [1, 11] of the same compound?
Its value is “inhibited”.

And the “phosphorylation of STAT3, AKT” value [2, 11]?
Its value is “inhibited”.

And the “mechanism of death, cleaved-caspase 3 positive cells” value (“mechanism of death” below) [3]?
The value was “die by apoptosis”.

What about the “phosphorylation of STAT3, AKT” value [4, 11] of the same compound?
Its value is “not affected”.

What about the “cellular growth response, compared with FIG-ROS1 BaF3 and Karpas 299 cells” value [5] of the same compound?
The value was “less sensitive”.

What about the “mechanism of death” value [6] of the same compound?
Its value is “die by apoptosis”.

And the “mechanism of death” value (Karpas 299 cells)?
The value was “did not die by apoptosis”.

And the cellular growth response ([7]; FIG. 6, 0-1000 nM, 72 hours, BaF3 FLT3/ITD)?
The cellular growth response was “not susceptible”.

And the “cellular growth response, compared with FIG-ROS1 BaF3 and Karpas 299 cells” value ([7]; FIGS. 9A/9B, 0-1.0 uM, negative control BaF3 FLT3-ITD)?
Its value is “less sensitive”.

What about the cellular growth response [8] of the same compound?
The cellular growth response was “stopped growing”.

And the “phosphorylation of FIG-ROS1(S)” value (FIG-ROS1(S); [11])?
Its value is “inhibited”.

What about the cellular growth response ([9]; FIG. 6, 0-1000 nM, 72 hours) of the same compound?
The cellular growth response was “stopped growing”.

And the “cellular growth response, TAE-684 compared with crizotinib” value [9, 12]?
Its value is “more sensitive to TAE-684 than to crizotinib”.

And the cellular growth response ([10]; FIG. 6, 0-1000 nM, 72 hours)?
The cellular growth response was “stopped growing”.

And the “cellular growth response, TAE-684 compared with crizotinib” value [10, 12]?
The value was “more sensitive to TAE-684 than to crizotinib”.

How did the “phosphorylation of FIG-ROS1(L)” value (FIG-ROS1(L); [13]) turn out when `C[C@@H](Oc1cc(-c2cnn(C3CCNCC3)c2)cnc1N)c1c(Cl)ccc(F)c1Cl` [crizotinib] was run?
The value was “inhibited”.

And the “phosphorylation of STAT3 and ERK” value [1, 13]?
The value was “inhibited”.

And the “phosphorylation of STAT3 and ERK” value [2, 13]?
The value was “inhibited”.

And the “phosphorylation of STAT3 and ERK” value [4, 13]?
Its value is “not affected”.

And the “phosphorylation of FIG-ROS1(S)” value (FIG-ROS1(S); [13])?
Its value is “inhibited”.
